Eleven compounds from PubChem BioAssay (NCI) can be followed below.

Experiment in all cases: NCI-60 cell line screen, 48 h
Test [1] relates to SK-MEL-5 melanoma.
The subject of test [2] is CCRF-CEM leukemia.
In test [3] the test system is RXF 393 renal.
Test [4] deals with NCI-H522 lung.
In test [5] the test system is HL-60(TB) leukemia.
The test system of test [6] is EKVX NSCLC.
In test [7] the test system is OVCAR-8 ovarian.
Test [8] deals with SNB-19 CNS.
For test [9], the system named is UACC-62 melanoma.
Test [10] deals with NCI-H460 lung.

Each structure is given as a SMILES string.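 Step 1: Grow cells in 96-well plates. Step 2: Expose to compound for 48 hours at 5 concentrations. Step 3: Interpolate endpoints linearly; if unreached, use highest concentration. The concentration for 50% growth inhibition is given as GI50. TGI is the concentration that stops growth completely.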 Where a SMILES comes first, the peptide text is derived from it. Bridges are numbered along the chain shown (N, C = ends). Roman numbers before positions name the chains, in order. [ ]: non-standard residue; d: D form. The star is where a group is joined. Quinoxaline2carbonyl = O=C(c1cnc2ccccc2n1)*; NMeV = CN[CH](C(=O)O)C(C)C; NMeC = CN[CH](CS)C(=O)O Where only a bound is given, the exact number is not on record here.

As to `Cc1nc2ccccc2c(/C=C/c2ccc(Br)cc2)c1C(=O)/C=C/c1ccccc1`, the GI50 in test [1] is 1.72 µM; in [2], 1.48 µM; in test [3] it was 1.64 µM; in test [4], 1.42 µM; in test [5] it was 2.17 µM; in test [6], 1.75 µM. Further, the GI50 was 1.57 µM in test [7], 1.62 µM in [8] and 1.54 µM in test [9]. Further, the TGI in test [1] was 3.11 µM; in test [2], over 100 µM; in [3], 3.07 µM; in [4], 3.04 µM; in test [5], 5.27 µM; in test [6], 3.32 µM. Besides, the TGI amounted to 3.48 µM in test [7], 3.05 µM in test [8] and 3.01 µM in test [9].

As to `CCOC1=C2N=C(Cc3ccccc3F)N=C2C(=O)c2ccccc21`, the TGI in test [2], in test [3], in test [4], in test [5], in [6] and in [7] was over 100 µM throughout. For the same compound, the TGI in test [10], in test [8] and in test [9] was over 100 µM in each case.

Consider `O=C(NC1CCCC1=O)c1ccccc1` (centres undefined), for which the TGI in [1], in [2], in test [3], in test [5], in test [6] and in [7] was over 100 µM each time. Besides, the TGI in [10], in [8] and in test [9] was over 100 µM in each case.

On to `CN1CCN(Cc2ccc(NC(=O)c3[nH]ncc3Nc3ncnc4sc5c(c34)CCCC5)cc2)CC1`, for which the GI50 is 0.543 µM in test [1]; 0.179 µM in [2]; 0.229 µM in test [3]; 0.241 µM in test [4]; 0.269 µM in test [5]; 0.413 µM in [7]. The figures for the GI50 in test [10], in test [8] and in test [9] were 0.136 µM, 0.282 µM and 0.55 µM, respectively. For the same compound, the TGI in test [1] came out at 1.87 µM; in test [2], 0.823 µM; in test [3] it was 0.949 µM; in test [4], 1.08 µM; in test [5] it was 0.804 µM; in test [7] it was 2.52 µM. For the same compound, the values for the TGI in test [10], in test [8] and in test [9] were 1.05 µM, 1.48 µM and 1.93 µM, respectively.

As for `CCN(CCO)CC(C)Nc1ccc([N+](=O)[O-])c2sc3ccccc3c(=O)c12` (centres undefined), the GI50 in test [1] was 1.52 µM; in [2] it was 1 µM; in test [3] it was 1.89 µM; in test [5], 0.917 µM; in [6] it was 1.67 µM; in [7], 1.18 µM. Further, the results for the GI50 in test [10], in test [8] and in test [9] were 0.379 µM, 2.34 µM and 1.63 µM, respectively. Moreover, the TGI in test [1] worked out at 5.56 µM; in test [2], 7.19 µM; in test [3] it was 8 µM; in test [5] it was 4 µM; in test [6], 6.28 µM; in [7] it was 4.19 µM. In addition, the TGI in [10] was found to be 2.27 µM; in [8] it was 19 µM; in test [9], 12.8 µM.

Take `CC1(C)CCC[C@]2(C)[C@@H](C=O)C(C=O)=CC[C@@H]12`: the TGI in [1] is 29 µM; in test [2], 80.1 µM; in test [3] it was 34.6 µM; in [4] it was 37.4 µM; in test [5] it was 36.5 µM; in test [6] it was over 100 µM. Besides, the TGI came to 31.2 µM in test [7], 77.4 µM in test [8] and 34.7 µM in [9].

Regarding `CCO/C=C1\N=C(c2ccccc2Br)OC1=O`, the TGI in test [2], in test [3], in test [4], in test [5], in test [6] and in [7] was over 100 µM throughout. In addition, the TGI in test [10], in test [8] and in test [9] was over 100 µM each time.

With `COCCOCOc1ccc(OCOCCOC)c2c1C(=O)c1ccccc1C2=O`, the TGI in test [1], in test [2], in test [3], in [5], in test [6] and in [7] was over 100 µM in each case. Further, the TGI in test [10], in test [8] and in [9] was over 100 µM throughout.

As to `CC1(C)N=C(N)N=C(N)N1c1ccc(CCCCc2ccc(S(=O)(=O)F)cc2)c(Cl)c1`, the GI50 in test [1] was 0.345 µM; in [2], 0.107 µM; in test [3] it was 0.0862 µM; in [4], 0.419 µM; in test [5] it was 0.181 µM; in test [7], 0.452 µM. Also, the GI50 is 0.0399 µM in [10], 0.773 µM in test [8] and 0.0559 µM in [9]. Besides, the TGI in test [1] is 12.5 µM; in test [2], 17.4 µM; in test [3], over 61.2 µM; in test [4], 16.7 µM; in test [5] it was 23.6 µM; in [7], 18.4 µM. For the same compound, the TGI in test [10] was determined as 12.6 µM; in [8], 19.1 µM; in [9], 19.6 µM.

With `Cc1cc(N(CCC#N)CCC#N)ccc1/C=C1N=C(/C=C\c2ccccc2)N(c2ccc(Cl)cc2)C\1=O`, the TGI is 17.5 µM in test [1]; over 100 µM in test [2]; over 100 µM in test [3]; over 100 µM in test [4]; over 100 µM in test [5]; over 100 µM in test [6]. Moreover, the TGI in test [7], in [10] and in [8] was over 100 µM each time.

In the case of `CC1NC(=O)C(NC(=O)c2cnc3ccccc3n2)COC(=O)C(C(C)C)N(C)C(=O)C2CSSCC(C(=O)N(C)C(C(C)C)C(=O)OCC(NC(=O)c3cnc4ccccc4n3)C(=O)NC(C)C(=O)N2C)N(C)C1=O` (centres undefined) (I: Quinoxaline2carbonyl-SA[NMeC][NMeV] / II: Quinoxaline2carbonyl-SA[NMeC][NMeV]; ester I:1-II:C, I:C-II:1; disulfide I:3-II:3; configuration not given here), the TGI in test [2] was 0.229 µM; in test [3], under 0.01 µM; in [4] it was under 0.01 µM; in [5], under 0.01 µM; in test [7], under 0.215 µM; in test [10], 2.23 µM. Besides, the TGI in test [8] was over 100 µM; in [9], under 0.01 µM.
